Test results as given in article PMC5442318, “Hundreds of dual-stage antimalarial molecules discovered by a functional gametocyte screen” (Nature Communications, 2017).

How the values were obtained:
[1] = test system: P. falciparum stage V female gametocytes; experiment: P. falciparum female gametocyte activation assay (Pf FGAA), 24 h or 48 h preincubation, Pfs25 expression readout; assay type: cell-based, Plasmodium falciparum NF54; conditions: P. falciparum female gametocytes; mean; read-out: Gametocytes mean Pf FGAA IC50
Description: P. falciparum NF54 (originally isolated from an imported malaria case in the Netherlands in the 1980s; BEI Resources, cat. no. MRA-1000) asexual-stage culture was performed as described by Trager and Jensen[37]. Cultures synchronized at the ring stage were used to start gametocyte cultures (day 0) at 1% parasitaemia and 4% haematocrit in 200 ml final volume using culture bottles (Nalgene 3110-42, Thermo Scientific). Complete culture medium (RPMI 1640 supplemented with 25 mM HEPES, 50 μg ml^−1 hypoxanthine, 2 g l^−1 NaHCO3 and 10% pooled human male type A+ serum) was totally replaced daily for 14 days without fresh erythrocyte addition. Human serum was obtained from Interstate Blood Bank, A^+ serotype; no aspirin 2 h before drawing and no antimalarials 2 weeks before drawing. To ensure a stable temperature at 37 °C, which is crucial for gametocyte production and maturation, pre-warmed medium and a slide warmer (XH-2001, Premiere) were used. Under these conditions, parasitaemia reaches a peak of asexual stages on days 4–5, and the first gametocytes are differentiated in culture on day 6. Sexual-stage development was monitored microscopically by Giemsa-stained thin blood smears at day 7 (mainly asexual stages and stages I to III gametocytes) and day 14 (stages IV and V gametocytes).
Cultures showing mainly stage V gametocytes were purified by differential sedimentation as previously reported. The gametocyte concentration was adjusted to plate 8,000 gametocytes per well (100 μl per well) in 384-well poly-D-lysine coated plates (781946, Greiner Bio-One) containing the compounds to test. […] Female gametocyte activation was then triggered by temperature drop and addition of xanthurenic acid (D120804, Sigma) as previously described. To detect female gametes, monoclonal anti-Pfs25 antibody[38] 4B7 (BEI Resources (formerly MR4), cat. no. MRA-315) conjugated to the Cy3 fluorochrome (GE Healthcare) was added to ookinete medium (RPMI 1640 supplemented with 25 mM HEPES, 50 μg ml^−1 hypoxanthine, 2 g l^−1 NaHCO3, 100 μM xanthurenic acid and 20% human serum) at a final concentration of 0.5 μg ml^−1. Activated cultures were then kept at 26 °C for 24 h protected from light, and image acquisition was performed in the Opera High-Content Screening System (PerkinElmer). Using × 10 air objective, five images per well were taken using 532 nm excitation. Images were analysed with a Columbus image data storage and analysis system (PerkinElmer) based on a script specifically designed for this assay that considers size, roundness and intensity of fluorescence of the female activated gametocytes.
Compounds were dissolved in 100% DMSO and dispensed in the 384-well plates using an Echo-CRS liquid handler. Compounds were tested in 2–3 independent experiments. […] Based on that, Z′ factor was calculated for each plate and only those ones with values higher than 0.4 were considered acceptable for data analysis.
Assay performance statistics, such as signal to background ratio, Z′ and robust 3 s.d. activity cut-off were calculated using templates in ActivityBase XE (IDBS, Guilford, Surrey, UK). Hit population analysis and visualization were conducted using Spotfire DecisionSite (Spotfire, Inc., Somerville, MA, USA). The pIC50 (−log IC50) values were obtained using the ActivityBase XE nonlinear regression function in the full curve analysis bundle.

[2] = test system: P. falciparum stages IV–V gametocytes; experiment: Gametocytocidal ATP-depletion assay (gametocyte ATP bioluminescence); assay type: cell-based, Plasmodium falciparum
Description: In parallel, the set of confirmed hits from the Pf FGAA screen was cross-compared in the gametocyte ATP-depletion assay, at 2 μM single concentration (Supplementary Data 1). This assay monitors ATP levels as surrogate of gametocyte viability.
‘Viability' of mature gametocytes was determined using the gametocyte ATP bioluminiscence assay. Briefly, stages IV–V gametocyte cultures were double-purified by differential sedimentation followed by magnetic isolation. Then, parasites (50 μl per well containing 12,500 gametocytes) were added to compound pre-dispensed 384-well plates (781091, Greiner Bio-One) and incubated at 37 °C for 48 h (3% O2, 5% CO2 and 92% N2). BacTiter-Glo kit (G8231, Promega) was used to determine the ATP levels of ‘live' parasites according to the manufacturer's instructions. After reagent addition (50 μl per well), luminescence of the plates was measured using a microplate reader (HTS counter Victor, Wallac).

HepG2 cells = experiment: HepG2 cytotoxicity assay; assay type: cell-based; conditions: HepG2 cells; mean
Description: After incubation, plates and CellTiter-Glo Reagent (G7571, Promega) were equilibrated at room temperature for 30 min before proceeding to develop the luminescent signal. Using a Multidrop combi dispenser, 25 μl per well of the signal developer were added to the plates and after 10 min at room temperature for stabilization, plates were read on the ViewLux system (Perkin Elmer).

[3] = test system: P. falciparum asexual blood stages; conditions: TCAMS asexual blood stage data; ref 1 (Gamo, F. J. et al., Nature 465, 305-310, 2010); read-out: Pf Asexual blood stages XC50; cited from earlier work

COc1ccc(CCNCCCCCCNCCc2ccc(Cl)c3ccccc23)cc1OC.Cl [TCMDC-131270]
IC50 [1]: 580 nM
Gametocytes mean ATP inhibition at 2µM [2]: 67.75%
HepG2 cells mean TOX50 (HepG2 cells): 2.12 µM
IC50 [3]: 580 nM

Br.Oc1ccc(CCNCCCCCCNCCc2ccc(Cl)c3ccccc23)cc1O [TCMDC-131271]
IC50 [1]: 2380 nM
Gametocytes mean ATP inhibition at 2µM [2]: 14.57%
HepG2 cells mean TOX50 (HepG2 cells): 11.22 µM
IC50 [3]: 720 nM

COc1ccc(CCNCCCCCCNCCc2ccc(Cl)cc2)c(Cl)c1OC.Cl [TCMDC-131272]
IC50 [1]: 830 nM
Gametocytes mean ATP inhibition at 2µM [2]: 24.24%
HepG2 cells mean TOX50 (HepG2 cells): 5.54 µM
IC50 [3]: 820 nM

Br.CC(C)(Cc1ccc(Cl)cc1)NCCCCCCNCCc1ccc(O)c(O)c1 [TCMDC-131277]
IC50 [1]: 9660 nM
Gametocytes mean ATP inhibition at 2µM [2]: 53.83%
HepG2 cells mean TOX50 (HepG2 cells): 10.97 µM
IC50 [3]: 1200 nM

Br.CCCCc1ccc(CCNCCCCCCNCCc2ccc(O)c(O)c2)cc1 [TCMDC-131281]
IC50 [1]: 2150 nM
Gametocytes mean ATP inhibition at 2µM [2]: 60.07%
HepG2 cells mean TOX50 (HepG2 cells): 4.63 µM
IC50 [3]: 1070 nM

CCC(CSC1CCCCC1)N(C)CCN(C)C(CC)CSC1CCCCC1.Cl (stereo not shown) [TCMDC-131456]
IC50 [1]: 1250 nM
Gametocytes mean ATP inhibition at 2µM [2]: 36.19%
HepG2 cells mean TOX50 (HepG2 cells): 0.0654 µM
IC50 [3]: 310 nM

C[C@H](Cc1ccc(C[C@@H](C)NC[C@H](O)c2cccc(Cl)c2)cc1)NC[C@H](O)COc1ccccc1.Cl [TCMDC-131549]
IC50 [1]: 1390 nM
Gametocytes mean ATP inhibition at 2µM [2]: 20.38%
HepG2 cells mean TOX50 (HepG2 cells): 5.19 µM
IC50 [3]: 1170 nM

C[C@H](Cc1ccc(CCc2ccc(C[C@@H](C)NC[C@H](O)c3cccc(Cl)c3)cc2)cc1)NC[C@H](O)c1cccc(Cl)c1.Cl [TCMDC-131551]
IC50 [1]: 2050 nM
Gametocytes mean ATP inhibition at 2µM [2]: 51.33%
HepG2 cells mean TOX50 (HepG2 cells): 4.27 µM
IC50 [3]: 940 nM

C[C@H](Cc1ccc(Oc2ccc(C[C@@H](C)NC[C@H](O)c3cccc(Cl)c3)cc2)cc1)NC[C@H](O)c1cccc(Cl)c1.Cl [TCMDC-131560]
IC50 [1]: 720 nM
Gametocytes mean ATP inhibition at 2µM [2]: 70.55%
HepG2 cells mean TOX50 (HepG2 cells): 2.04 µM
IC50 [3]: 560 nM

C[C@H](Cc1ccc(OCCCCCOc2ccc(C[C@@H](C)NC[C@H](O)c3cccc(Cl)c3)cc2)cc1)NC[C@H](O)c1cccc(Cl)c1.Cl [TCMDC-131563]
IC50 [1]: 960 nM
Gametocytes mean ATP inhibition at 2µM [2]: 21.40%
HepG2 cells mean TOX50 (HepG2 cells): 2.11 µM
IC50 [3]: 190 nM

N=C(/N=C(/NCCCCCCN/C(=N\C(=N)Nc1ccc(Cl)cc1)N1CCCCC1)N1CCCCC1)Nc1ccc(Cl)cc1 [TCMDC-131811]
IC50 [1]: 7870 nM
Gametocytes mean ATP inhibition at 2µM [2]: 49.82%
HepG2 cells mean TOX50 (HepG2 cells): 44.23 µM
IC50 [3]: 260 nM

N=C(/N=C(/NCCCCCCN/C(=N/C(=N)NCc1ccc(Cl)c(Cl)c1)N1CCCCC1)N1CCCCC1)NCc1ccc(Cl)c(Cl)c1 [TCMDC-131816]
IC50 [1]: 2610 nM
Gametocytes mean ATP inhibition at 2µM [2]: 67.07%
HepG2 cells mean TOX50 (HepG2 cells): 43.18 µM
IC50 [3]: 570 nM

CCN(CC)/C(=N/C(=N)NCc1ccc(Cl)cc1Cl)NCCCCCCN/C(=N\C(=N)NCc1ccc(Cl)cc1Cl)N(CC)CC [TCMDC-131819]
IC50 [1]: 4750 nM
Gametocytes mean ATP inhibition at 2µM [2]: 65.32%
HepG2 cells mean TOX50 (HepG2 cells): 36.73 µM
IC50 [3]: 220 nM
